# Values joined by “and” are separate entries in the source; they are usually repeats but may differ in a detail not shown here. Equal values may be shown once. “Also recorded” adds a separate entry of the source.
# Assays:
# Type in all cases: in vivo, human
# [1] = tested on: patients with advanced Alzheimer's disease; assay: Severe Impairment Battery (SIB) in double-blind, randomized, placebo-controlled trial; set-up: key to SIB Total LS Mean change from baseline (MMRM) / SIB Total LS Mean change (MMRM with memantine covariate) / SIB Delta from baseline, Mean (unadjusted): change from baseline in SIB total score; low scores = greater impairment; conditions: for SIB Total Difference vs. Placebo (MMRM) / SIB Total LS Mean change from baseline (MMRM): 20 μg iv; for SIB Delta from baseline, Mean (unadjusted): Low dose (20)
# Method: In a double-blind, randomized, placebo-controlled trial, bryostatin was administered by intravenous infusion (˜45 minutes) to patients with advanced Alzheimer's disease for 12 weeks at doses of 20 or 40 μg. Randomization was stratified at baseline by severe (MMSE-2, 4-9) and moderate (MMSE-2, 10-15) dementia, wherein MMSE-2 refers to Mini-Mental State Examination, version 2. The MMSE or Folstein test is a 30-point questionnaire that is used extensively in clinical and research settings to measure cognitive impairment. Low scores indicate greater impairment. Version 2 of the MMSE was published in 2010, expanding the original questionnaire's usefulness in populations with milder forms of cognitive impairment. […] Importantly, this cognitive improvement persisted and increased 30 days after all bryostatin dosing had been completed.
# (§1) Adults aged 55-85 with cognitive deficits present for at least 2 years, MMSE-2 of 4-15, inclusive, and a diagnosis of Alzheimer's dementia were randomly assigned to receive blinded intravenous infusions of bryostatin 24 μg or matching placebo at weeks 0 and 1. The 24 μg and 48 μg doses during the first two weeks of the 20 and 40 μg protocols respectively were considered to be “loading” doses thought to be beneficial from prior experience with Compassionate Use trial patients. Nelson et al., Alzheimers Dis. 2017 58: 521-535. In one arm, the two 24 μg doses were followed by 20 μg doses at weeks 5, 7, 9 and 11 with the Severe Impairment Battery (SIB) measured at baseline and weeks 5, 9, 13, and 15. In a second arm, the two 48 μg doses at weeks 0 and 1 were followed by 40 μg doses at weeks 5, 7, 9, and 11 with the SIB measured at baseline and weeks 5, 9, 13, and 15. The subjects were stratified by MMSE-2 in two strata: Stratum 1 (4-9) and Stratum 2 (10-15). The first primary endpoint was safety and tolerability, assessed by treatment emergent adverse events (TEAEs) with a sample size of 150 subjects randomized 1:1:1. Although efficacy was the secondary measure, the primary efficacy endpoint was SIB improvement at week 13 evaluated using a mixed model for repeated measures. A secondary efficacy endpoint was ADCS-ADL Sev. The primary safety population included all subjects who received at least 1 dose of study drug, and efficacy was evaluated in a modified intent to treat (mITT) population that received at least 1 dose of study drug and had at least one treatment evaluation. Efficacy was evaluated both as a primary end-point in the modified intent-to-treat (mITT) population and also as a primary end point in a Completers population that included all patients that completed the entire protocols as described above.
# The SIB efficacy measurement at 30 days (week 15) post dosing—after all dosing had been completed (last dose administered at week 11)—was a pre-specified exploratory endpoint. Week 15 results were only included for subjects who were not re-randomized. The mixed model assumes missing at random, but order of enrollment in the trial was not random. Since order of enrollment was not random, the assumption of missing at random is not met. For this reason, only including week 15 for those who were not re-randomized is an appropriate way to estimate week 15 results, but not an appropriate way to estimate results at the earlier visits. For this reason, estimates up through week 13 are from a mixed model that only included data through week 13 and the week 15 estimates are from a separate model. Results were generated using a mixed model with repeated measures predicting change from baseline in SIB Total Score as the response variable and using baseline score, baseline MMSE strata, treatment, visit (categorical), and visit (treatment) as predictors. […]
# [2] = tested on: patients with advanced Alzheimer's disease; assay: ADCS-ADL-SIV (secondary efficacy endpoint) in the same trial
# Method: as §1
# [3] = tested on: patients with advanced Alzheimer's disease; assay: Safety and tolerability (treatment emergent adverse events) in the same trial; conditions: 40 μg iv, 12 weeks
# Method: Adults aged 55-85 with cognitive deficits present for at least 2 years, MMSE-2 of 4-15, inclusive, and a diagnosis of Alzheimer's dementia were randomly assigned to receive blinded intravenous infusions of bryostatin 24 μg or matching placebo at weeks 0 and 1. The 24 μg and 48 μg doses during the first two weeks of the 20 and 40 μg protocols respectively were considered to be “loading” doses thought to be beneficial from prior experience with Compassionate Use trial patients. Nelson et al., Alzheimers Dis. 2017 58: 521-535. In one arm, the two 24 μg doses were followed by 20 μg doses at weeks 5, 7, 9 and 11 with the Severe Impairment Battery (SIB) measured at baseline and weeks 5, 9, 13, and 15. In a second arm, the two 48 μg doses at weeks 0 and 1 were followed by 40 μg doses at weeks 5, 7, 9, and 11 with the SIB measured at baseline and weeks 5, 9, 13, and 15. The subjects were stratified by MMSE-2 in two strata: Stratum 1 (4-9) and Stratum 2 (10-15). The first primary endpoint was safety and tolerability, assessed by treatment emergent adverse events (TEAEs) with a sample size of 150 subjects randomized 1:1:1. Although efficacy was the secondary measure, the primary efficacy endpoint was SIB improvement at week 13 evaluated using a mixed model for repeated measures. A secondary efficacy endpoint was ADCS-ADL Sev. […]
# [4] = Week 15 (30 days post dosing), Completer
# [5] = Week 15 (30 days post dosing), FAS
# [6] = 20 μg, Week 5, Completer, With Memantine
# [7] = 20 μg, Week 5, Completer, Without Memantine
# [8] = 20 μg, Week 5, FAS, With Memantine
# [9] = 20 μg, Week 5, FAS, Without Memantine
# [10] = 20 μg, Week 9, Completer, With Memantine
# [11] = 20 μg, Week 9, Completer, Without Memantine
# [12] = 20 μg, Week 9, FAS, With Memantine
# [13] = 20 μg, Week 9, FAS, Without Memantine
# [14] = 20 μg, Week 13, Completer, With Memantine
# [15] = 20 μg, Week 13, Completer, Without Memantine
# [16] = 20 μg, Week 13, FAS, With Memantine
# [17] = 20 μg, Week 13, FAS, Without Memantine
# [18] = 20 μg, Week 15, Completer, With Memantine
# [19] = 20 μg, Week 15, Completer, Without Memantine
# [20] = 20 μg, Week 15, FAS, With Memantine
# [21] = 20 μg, Week 15, FAS, Without Memantine
structure (smiles),measurement,setting,value
"CCC/C=C/C=C/C(=O)O[C@H]1/C(=C/C(=O)OC)C[C@H]2C[C@H]([C@@H](C)O)OC(=O)C[C@H](O)C[C@@H]3C[C@H](OC(C)=O)C(C)(C)[C@](O)(C[C@@H]4C/C(=C/C(=O)OC)C[C@H](/C=C/C(C)(C)[C@]1(O)O2)O4)O3 [Bryostatin, bryostatin-1]",SIB versus baseline and placebo (in words),"[1]; 20 μg dose, throughout the 13-week trial",sustained improvement in SIB
same,SIB Total Difference vs. Placebo (MMRM),"[1]; Week 5, Completer",4.00
same,SIB Total LS Mean change from baseline (MMRM),"[1]; Week 5, Completer",1.67
same,SIB Total Difference vs. Placebo (MMRM),"[1]; Week 5, FAS",2.96
same,SIB Total LS Mean change from baseline (MMRM),"[1]; Week 5, FAS",1.18
same,SIB Total Difference vs. Placebo (MMRM),"[1]; Week 9, Completer",1.85
same,SIB Total LS Mean change from baseline (MMRM),"[1]; Week 9, Completer",1.28
same,SIB Total Difference vs. Placebo (MMRM),"[1]; Week 9, FAS",1.03
same,SIB Total LS Mean change from baseline (MMRM),"[1]; Week 9, FAS",0.94
same,SIB Total Difference vs. Placebo (MMRM),"[1]; Week 13, Completer",2.63
same,SIB Total LS Mean change from baseline (MMRM),"[1]; Week 13, Completer",1.51
same,SIB Total Difference vs. Placebo (MMRM),"[1]; Week 13, Completer, listed as bryostatin",2.6
same,SIB Total Difference vs. Placebo (MMRM),"[1]; Week 13, FAS",1.94
same,SIB Total LS Mean change from baseline (MMRM),"[1]; Week 13, FAS",1.16
same,SIB Total Difference vs. Placebo (MMRM),[1]; [4],4.09
same,SIB Total LS Mean change from baseline (MMRM),[1]; [4],1.96
same,SIB Total Difference vs. Placebo (MMRM),"[1]; Week 15 (30 days post dosing), Completer, listed as bryostatin",4.0 and 4.09
same,SIB Total Difference vs. Placebo (MMRM),[1]; [5],3.59
same,SIB Total LS Mean change from baseline (MMRM),[1]; [5],1.77
same,SIB Total Difference vs. Placebo (MMRM with memantine covariate),[1]; [6],2.94
same,SIB Total LS Mean change (MMRM with memantine covariate),[1]; [6],0.61
same,SIB Total Difference vs. Placebo (MMRM with memantine covariate),[1]; [7],5.38
same,SIB Total LS Mean change (MMRM with memantine covariate),[1]; [7],3.22
same,SIB Total Difference vs. Placebo (MMRM with memantine covariate),[1]; [8],1.96
same,SIB Total LS Mean change (MMRM with memantine covariate),[1]; [8],0.26
same,SIB Total Difference vs. Placebo (MMRM with memantine covariate),[1]; [9],4.48
same,SIB Total LS Mean change (MMRM with memantine covariate),[1]; [9],2.74
same,SIB Total Difference vs. Placebo (MMRM with memantine covariate),[1]; [10],0.90
same,SIB Total LS Mean change (MMRM with memantine covariate),[1]; [10],−0.16
same,SIB Total Difference vs. Placebo (MMRM with memantine covariate),[1]; [11],2.66
same,SIB Total LS Mean change (MMRM with memantine covariate),[1]; [11],3.34
same,SIB Total Difference vs. Placebo (MMRM with memantine covariate),[1]; [12],0.09
same,SIB Total LS Mean change (MMRM with memantine covariate),[1]; [12],−0.33
same,SIB Total Difference vs. Placebo (MMRM with memantine covariate),[1]; [13],2.08
same,SIB Total LS Mean change (MMRM with memantine covariate),[1]; [13],2.95
same,SIB Total Difference vs. Placebo (MMRM with memantine covariate),[1]; [14],0.56
same,SIB Total LS Mean change (MMRM with memantine covariate),[1]; [14],−0.39
same,SIB Total Difference vs. Placebo (MMRM with memantine covariate),[1]; [15],5.53
same,SIB Total LS Mean change (MMRM with memantine covariate),[1]; [15],4.22
same,SIB Total Difference vs. Placebo (MMRM with memantine covariate),[1]; [16],−0.14
same,SIB Total LS Mean change (MMRM with memantine covariate),[1]; [16],−0.60
same,SIB Total Difference vs. Placebo (MMRM with memantine covariate),[1]; [17],5.11
same,SIB Total LS Mean change (MMRM with memantine covariate),[1]; [17],3.83
same,SIB Total Difference vs. Placebo (MMRM with memantine covariate),[1]; [18],1.45
same,SIB Total LS Mean change (MMRM with memantine covariate),[1]; [18],−0.71
same,SIB Total Difference vs. Placebo (MMRM with memantine covariate),[1]; [19],6.36
same,SIB Total LS Mean change (MMRM with memantine covariate),[1]; [19],6.24
same,SIB Total Difference vs. Placebo (MMRM with memantine covariate),[1]; [20],0.79
same,SIB Total LS Mean change (MMRM with memantine covariate),[1]; [20],−0.83
same,SIB Total Difference vs. Placebo (MMRM with memantine covariate),[1]; [21],5.93
same,SIB Total LS Mean change (MMRM with memantine covariate),[1]; [21],5.88
same,"Mean slope of SIB over time, Weighted Slope","[1]; 20 μg, weighted by number of non-zero SIB scores, second column group (memantine exposed, stratum not given)",−0.099
same,SIB versus baseline and placebo (in words),[1]; 40 μg dose,lack of efficacy; also recorded: no SIB improvement
same,"SIB Delta from baseline, Mean (unadjusted)","[1]; Ave of Week 13 and 15, Memantine Exposed Patients, FAS",−0.727
same,"SIB Delta from baseline, Mean (unadjusted)","[1]; Ave of Week 13 and 15, Memantine Treatment-Naïve Patients, FAS",5.406
same,"SIB Delta from baseline, Mean (unadjusted)","[1]; Week 5, Memantine Exposed Patients, FAS",0.077
same,"SIB Delta from baseline, Mean (unadjusted)","[1]; Week 5, Memantine Treatment-Naïve Patients, FAS",3.444
same,"SIB Delta from baseline, Mean (unadjusted)","[1]; Week 9, Memantine Exposed Patients, FAS",−0.087
same,"SIB Delta from baseline, Mean (unadjusted)","[1]; Week 9, Memantine Treatment-Naïve Patients, FAS",3.467
same,"SIB Delta from baseline, Mean (unadjusted)","[1]; Week 13, Memantine Exposed Patients, FAS",−0.545
same,"SIB Delta from baseline, Mean (unadjusted)","[1]; Week 13, Memantine Treatment-Naïve Patients, FAS",4.500
same,"Treatment effect on SIB at 13/15 weeks from baseline (ANCOVA coefficient, 20 μg vs placebo)","[1]; Memantine Exposed, adjusted for Base SIB, MMSE-2",−0.620
same,"Treatment effect on SIB at 13/15 weeks from baseline (ANCOVA coefficient, 20 μg vs placebo)","[1]; Memantine Exposed, adjusted for Baseline SIB",−0.531
same,"Treatment effect on SIB at 13/15 weeks from baseline (ANCOVA coefficient, 20 μg vs placebo)","[1]; Memantine Naïve, adjusted for Base SIB, MMSE-2",5.923
same,"Treatment effect on SIB at 13/15 weeks from baseline (ANCOVA coefficient, 20 μg vs placebo)","[1]; Memantine Naïve, adjusted for Baseline SIB",5.426
same,SIB improvement (in words),"[1]; patients on memantine, week 13 or 15",no SIB improvement
same,"ADCS-ADL, subgroups with and without memantine as background SOC therapy (in words)",[2]; 20 μg,not significantly different above placebo
same,ADCS-ADL difference from placebo,"[2]; 20 μg, completers group",1.6
same,ADCS-ADL difference from placebo,"[2]; 20 μg, mITT group",1.4
same,ADCS-ADL efficacy (in words),[2]; 40 μg dose,significant for the 20 μg but not the 40 μg dose
same,Safety results,[3],more adverse events
